Laboratory results published in patent US20250032524A1, “BROAD SPECTRUM AMINOGLYCOSIDES AND USES THEREOF” (REVAGENIX, INC., priority 2022, published 2025).

What was measured:
[1] = tested on: A. baumannii strain CDC-313; assay: Neutropenic mouse lung infection model; format: in vivo; conditions: neutropenic CD-1 male mice, FIG. 15
A. baumannii = assay: MIC broth microdilution (CLSI); format: cell-based
Method: (§1) Minimum inhibitory concentrations for representative example compounds herein were determined by a broth microdilution method in accordance with the Clinical and Laboratory Standards Institute (CLSI) guidelines. In brief, organism suspensions were adjusted to a 0.5 McFarland standard to yield a final inoculum between 3×10^5 and 7×10^5 colony-forming units (CFU)/mL. The inoculum was prepared by suspension of a colony from an agar plate that was prepared the previous day. Compound dilutions and inoculum were prepared in sterile, cation adjusted Mueller-Hinton Broth (Beckton Dickinson).
(§2) Bacteria were suspended in sterile saline and added to each assay plate to obtain a final concentration of 5×10^5 CFU/mL. An inoculum volume of 100 μL was added to wells containing 100 μL of broth with 2-fold serial dilutions of the test compound. All inoculated microdilution trays were incubated in ambient air at 35° C. for 18-24 hours. Following incubation, the lowest concentration of the compound that prevented visible growth (OD 600 nm<0.05) is recorded was the MIC. […] Performance of the assay was monitored by the use of laboratory quality-control strains and a standard compound with a defined MIC spectrum (neomycin), in accordance with CLSI guidelines.

C. freundii = assay: MIC broth microdilution (CLSI); format: cell-based; conditions: strain ACSP1001, MDR Clinical isolate (CDC CRE panel), CDC AR Bank 0157
Method: as §1, §2

E. cloacae = assay: MIC broth microdilution (CLSI); format: cell-based; conditions: strain AECL1089, MDR Clinical isolate (CDC CRE panel), CDC AR Bank 0154
Method: as §1, §2

E. coli = assay: MIC broth microdilution (CLSI); format: cell-based
Method: as §1, §2

K. aerogenes = assay: MIC broth microdilution (CLSI); format: cell-based; conditions: strain AEAE1042, MDR Clinical isolate (CDC CRE panel), CDC AR Bank 0161
Method: as §1, §2

K. pneumoniae = assay: MIC broth microdilution (CLSI); format: cell-based
Method: as §1, §2

P. aeruginosa = assay: MIC broth microdilution (CLSI); format: cell-based
Method: as §1, §2

P. mirabilis = assay: MIC broth microdilution (CLSI); format: cell-based; conditions: strain APMI1048, MDR Clinical isolate (CDC CRE panel), CDC AR Bank 0159
Method: as §1, §2

S. aureus = assay: MIC broth microdilution (CLSI); format: cell-based
Method: as §1, §2

S. enterica = assay: MIC broth microdilution (CLSI); format: cell-based; conditions: strain ASSE1001, MDR Clinical isolate (CDC CRE panel), CDC AR Bank 0127
Method: as §1, §2

In the case of `NCC[C@H](O)C(=O)N[C@@H]1C[C@H](N)[C@@H](O[C@H]2O[C@H](CN)[C@@H](O)[C@H](O)[C@H]2O)[C@H](O)[C@H]1O[C@H]1O[C@H](CO)[C@@H](O)[C@H](N)[C@H]1O` [amikacin], the “in vivo antibacterial activity against the strain” value [1] is reported as “minimal activity”.

In the case of `NC[C@@H]1O[C@H](O[C@H]2[C@@H](O)[C@H](O[C@@H]3[C@@H](O)[C@H](N)C[C@H](N)[C@H]3O[C@H]3O[C@H](CN)[C@@H](O)[C@H](O)[C@H]3N)O[C@@H]2CO)[C@H](N)[C@@H](O)[C@@H]1O` [NEO, neomycin, reference compound], the “Activity (MIC)” value (A. baumannii; strain NABA0006, WT parent) is reported as “+ (MIC threshold for positive activity (+) is ≤16 μg/mL)”, the “Activity (MIC)” value (A. baumannii; strain NABA0007, ΔadeJK efflux) is reported as “+ (MIC threshold for positive activity (+) is ≤16 μg/mL)” and the “Activity (MIC)” value (A. baumannii; strain NABA0020, AME negative strain) is reported as “+ (MIC threshold for positive activity (+) is ≤16 μg/mL)”. The “Activity (MIC)” value (A. baumannii; strain NABA1427, MDR Clinical isolate) was “− (for inactive (−) is >16 μg/mL)”, the “Activity (MIC)” value (A. baumannii; strain NABA1433, MDR Clinical isolate) was “− (for inactive (−) is >16 μg/mL)” and the “Activity (MIC)” value (A. baumannii; strain NABA1434, MDR Clinical isolate) was “+ (MIC threshold for positive activity (+) is ≤16 μg/mL)”. For the same compound, the “Activity (MIC)” value (A. baumannii; strain NABA1436, MDR Clinical isolate) was “− (for inactive (−) is >16 μg/mL)”, the “Activity (MIC)” value (A. baumannii; strain NABA1437, MDR Clinical isolate) was “+ (MIC threshold for positive activity (+) is ≤16 μg/mL)” and the “Activity (MIC)” value (A. baumannii; strain NABA1438, MDR Clinical isolate) was “− (for inactive (−) is >16 μg/mL)”. For the same compound, the “Activity (MIC)” value (A. baumannii; strain NABA1439, MDR Clinical isolate) was “− (for inactive (−) is >16 μg/mL)”, the “Activity (MIC)” value (A. baumannii; strain NABA1448, MDR Clinical isolate) was “− (for inactive (−) is >16 μg/mL)” and the “Activity (MIC)” value (A. baumannii; strain NABA1449, MDR Clinical isolate) was “+ (MIC threshold for positive activity (+) is ≤16 μg/mL)”. The “Activity (MIC)” value (A. baumannii; strain NABA1450, MDR Clinical isolate) was “− (for inactive (−) is >16 μg/mL)”, the “Activity (MIC)” value (C. freundii) was “− (for inactive (−) is >16 μg/mL)” and the “Activity (MIC)” value (E. cloacae) was “+ (MIC threshold for positive activity (+) is ≤16 μg/mL)”. The “Activity (MIC)” value (E. coli; strain AECO1225, MDR Clinical isolate (CDC CRE panel), CDC AR Bank 0118) was “+ (MIC threshold for positive activity (+) is ≤16 μg/mL)”, the “Activity (MIC)” value (E. coli; strain AECO1226, MDR Clinical isolate (CDC CRE panel), CDC AR Bank 0119) was “+ (MIC threshold for positive activity (+) is ≤16 μg/mL)” and the “Activity (MIC)” value (E. coli; strain AECO1227, MDR Clinical isolate (CDC CRE panel), CDC AR Bank 0128) was “+ (MIC threshold for positive activity (+) is ≤16 μg/mL)”. For the same compound, the “Activity (MIC)” value (E. coli; strain NECO0001, WT QC) was “+ (MIC threshold for positive activity (+) is ≤16 μg/mL)”, the “Activity (MIC)” value (E. coli; strain NECO0002, WT) was “+ (MIC threshold for positive activity (+) is ≤16 μg/mL)” and the “Activity (MIC)” value (E. coli; strain NECO0003, ΔtolC) was “+ (MIC threshold for positive activity (+) is ≤16 μg/mL)”. For the same compound, the “Activity (MIC)” value (E. coli; strain NECO0243, empty vector) was “+ (MIC threshold for positive activity (+) is ≤16 μg/mL)”, the “Activity (MIC)” value (E. coli; strain NECO0244, AAC(6')-Ib) was “+ (MIC threshold for positive activity (+) is ≤16 μg/mL)” and the “Activity (MIC)” value (E. coli; strain NECO0245, ArmA) was “+ (MIC threshold for positive activity (+) is ≤16 μg/mL)”. For the same compound, the “Activity (MIC)” value (E. coli; strain NECO0289, APH(3')-Ia) was “− (for inactive (−) is >16 μg/mL)”, the “Activity (MIC)” value (E. coli; strain NECO0302, AAC(3)-IIa) was “+ (MIC threshold for positive activity (+) is ≤16 μg/mL)” and the “Activity (MIC)” value (E. coli; strain NECO0350, AAC(2')-I) was “+ (MIC threshold for positive activity (+) is ≤16 μg/mL)”. For the same compound, the “Activity (MIC)” value (E. coli; strain NECO0359, ANT(4')-Ia) was “+ (MIC threshold for positive activity (+) is ≤16 μg/mL)”, the “Activity (MIC)” value (K. aerogenes) was “+ (MIC threshold for positive activity (+) is ≤16 μg/mL)” and the “Activity (MIC)” value (K. pneumoniae; strain AKPN1246, MDR Clinical isolate (CDC CRE panel), CDC AR Bank 0139) was “+ (MIC threshold for positive activity (+) is ≤16 μg/mL)”. For the same compound, the “Activity (MIC)” value (K. pneumoniae; strain AKPN1250, MDR Clinical isolate (CDC CRE panel), CDC AR Bank 0143) was “+ (MIC threshold for positive activity (+) is ≤16 μg/mL)”, the “Activity (MIC)” value (K. pneumoniae; strain AKPN1253, MDR Clinical isolate (CDC CRE panel), CDC AR Bank 0148) was “+ (MIC threshold for positive activity (+) is ≤16 μg/mL)” and the “Activity (MIC)” value (K. pneumoniae; strain AKPN1255, MDR Clinical isolate (CDC CRE panel), CDC AR Bank 0153) was “+ (MIC threshold for positive activity (+) is ≤16 μg/mL)”. For the same compound, the “Activity (MIC)” value (P. aeruginosa; strain NPAE0001, WT Aph(3')-IIb, QC) was “− (for inactive (−) is >16 μg/mL)”, the “Activity (MIC)” value (P. aeruginosa; strain NPAE0002, WT Aph(3')-IIb) was “+ (MIC threshold for positive activity (+) is ≤16 μg/mL)” and the “Activity (MIC)” value (P. aeruginosa; strain NPAE0006, Efflux KO, Aph(3')-IIb) was “+ (MIC threshold for positive activity (+) is ≤16 μg/mL)”. For the same compound, the “Activity (MIC)” value (P. aeruginosa; strain NPAE0010, MexXY over-expressed, Aph(3')-IIb) was “− (for inactive (−) is >16 μg/mL)”, the “Activity (MIC)” value (P. aeruginosa; strain NPAE0359, aph(3')-IIb KO (tetR)) was “− (for inactive (−) is >16 μg/mL)” and the “Activity (MIC)” value (P. aeruginosa; strain NPAE1288, MDR Clinical isolate) was “− (for inactive (−) is >16 μg/mL)”. For the same compound, the “Activity (MIC)” value (P. aeruginosa; strain NPAE1293, MDR Clinical isolate) was “− (for inactive (−) is >16 μg/mL)”, the “Activity (MIC)” value (P. aeruginosa; strain NPAE1299, MDR Clinical isolate) was “− (for inactive (−) is >16 μg/mL)” and the “Activity (MIC)” value (P. aeruginosa; strain NPAE1302, MDR Clinical isolate) was “− (for inactive (−) is >16 μg/mL)”. The “Activity (MIC)” value (P. aeruginosa; strain NPAE1303, MDR Clinical isolate) was “− (for inactive (−) is >16 μg/mL)”, the “Activity (MIC)” value (P. aeruginosa; strain NPAE1308, MDR Clinical isolate) was “− (for inactive (−) is >16 μg/mL)” and the “Activity (MIC)” value (P. aeruginosa; strain NPAE1310, MDR Clinical isolate) was “+ (MIC threshold for positive activity (+) is ≤16 μg/mL)”. The “Activity (MIC)” value (P. aeruginosa; strain NPAE1313, MDR Clinical isolate) was “− (for inactive (−) is >16 μg/mL)”, the “Activity (MIC)” value (P. aeruginosa; strain NPAE1316, MDR Clinical isolate) was “+ (MIC threshold for positive activity (+) is ≤16 μg/mL)” and the “Activity (MIC)” value (P. aeruginosa; strain NPAE1323, MDR Clinical isolate) was “− (for inactive (−) is >16 μg/mL)”. For the same compound, the “Activity (MIC)” value (P. mirabilis) was “+ (MIC threshold for positive activity (+) is ≤16 μg/mL)”, the “Activity (MIC)” value (S. aureus; strain NSAU001, wild-type, QC, ATCC 29213) was “+ (MIC threshold for positive activity (+) is ≤16 μg/mL)” and the “Activity (MIC)” value (S. aureus; strain NSAU1004, MDR Clinical isolate) was “+ (MIC threshold for positive activity (+) is ≤16 μg/mL)”. The “Activity (MIC)” value (S. aureus; strain NSAU1015, MDR Clinical isolate) was “+ (MIC threshold for positive activity (+) is ≤16 μg/mL)”, the “Activity (MIC)” value (S. aureus; strain NSAU1023, MDR Clinical isolate) was “− (for inactive (−) is >16 μg/mL)” and the “Activity (MIC)” value (S. aureus; strain NSAU1063, MDR Clinical isolate) was “− (for inactive (−) is >16 μg/mL)”. The “Activity (MIC)” value (S. enterica) was “+ (MIC threshold for positive activity (+) is ≤16 μg/mL)”.
